One test deals with T1, BRPF1B (Homo sapiens, UniProt P55201).
T1 construct: purchased DiscoveRx (BROMOscan platform); host or cells: E. coli host derived from BL21 (T7 phage)
T1 sequence (P55201 628-732 limits assumed): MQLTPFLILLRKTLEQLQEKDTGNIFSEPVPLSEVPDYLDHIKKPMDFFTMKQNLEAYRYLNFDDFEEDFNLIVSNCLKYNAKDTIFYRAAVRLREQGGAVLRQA
Description: BROMOscan bromodomain competitive binding assay (DiscoveRx), BRPF1B. As to conditions: BROMOscan platform, n = 2 unless cell says n = 4. The method, then: (§1) Compounds were tested using the commercially available BROMOscan™ Platform (DiscoveRx): http://www.discoverx.com/technologies-platforms/competitive-binding-technology/bromoscan-technology-platform/bromoscan-assay-process.
(§2) Bromodomain assays. T7 phage strains displaying bromodomains were grown in parallel in 24-well blocks in an E. coli host derived from the BL21 strain. E. coli were grown to log-phase and infected with T7 phage from a frozen stock (multiplicity of infection=0.4) and incubated with shaking at 32° C. until lysis (90-150 minutes). The lysates were centrifuged (5,000×g) and filtered (0.2 μm) to remove cell debris. […] The liganded beads were blocked with excess biotin and washed with blocking buffer (SeaBlock (Pierce), 1% BSA, 0.05% Tween 20, 1 mM DTT) to remove unbound ligand and to reduce non-specific phage binding. […] Test compounds were prepared as 1000× stocks in 100% DMSO and subsequently diluted 1:10 in monoethylene glycol (MEG) to create stocks at 100× the screening concentration (resulting stock solution is 10% DMSO/90% MEG). The compounds were then diluted directly into the assays such that the final concentration of DMSO and MEG were 0.1% and 0.9%, respectively. All reactions were performed in polystyrene 96-well plates in a final volume of 0.135 ml. […] The bromodomain concentration in the eluates was measured by qPCR.
(§3) An 11-point 3-fold serial dilution of each test compound was prepared in 100% DMSO at 1000× final test concentration. This serial is then diluted to 100× in ethylene glycol and subsequently diluted to 1× in the assay (final DMSO concentration=0.1%, Ethylene glycol concentration=0.9%). Most Kds were determined using a compound top concentration=10,000 nM.
(§4) Binding constants (Kds) were calculated with a standard dose-response curve using the Hill equation: […]
(§5) The Hill Slope was set to −1. Curves were fitted using a non-linear least square fit with the Levenberg-Marquardt algorithm.
(§6) BROMOscan™ uses the same assay technology as KINOMEscan™. For a more detailed description of this assay technology, see Fabian et al.12

Another test concerns the target T2, BRD1 (Homo sapiens, UniProt O95696).
T2 construct: purchased DiscoveRx (BROMOscan platform); host or cells: E. coli host derived from BL21 (T7 phage)
T2 sequence (O95696 562-666 limits assumed): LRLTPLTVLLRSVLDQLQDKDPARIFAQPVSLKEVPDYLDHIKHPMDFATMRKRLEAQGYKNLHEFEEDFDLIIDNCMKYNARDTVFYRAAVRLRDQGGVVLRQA
Description: BROMOscan bromodomain competitive binding assay (DiscoveRx), BRD1. As to conditions: BROMOscan platform, n = 2. The method, then:
as §1, §2, §3, §4, §5, §6

The next test has as its target T3, BRPF3 (Homo sapiens, UniProt Q9ULD4).
T3 construct: purchased DiscoveRx (BROMOscan platform); host or cells: E. coli host derived from BL21 (T7 phage)
T3 sequence (Q9ULD4 589-693 limits assumed): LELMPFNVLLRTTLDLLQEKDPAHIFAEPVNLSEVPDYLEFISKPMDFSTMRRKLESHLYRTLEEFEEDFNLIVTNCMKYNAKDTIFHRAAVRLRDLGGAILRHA
Description: BROMOscan bromodomain competitive binding assay (DiscoveRx), BRPF3. The note with it: BROMOscan platform, n = 2. The method, then:
as §1, §2, §3, §4, §5, §6

On to `Cn1c(=O)ccc2cc(NS(=O)(=O)c3ccccc3)ccc21` [Compound 1, N-(1-methyl-2-oxo-1,2-dihydroquinolin-6-yl)benzenesulfonamide], for which the figures for the dissociation constant Kd on BRPF1B, on BRD1 and at BRPF3 were 65 nM, 1400 nM and 7600 nM, respectively.

With `Cn1c(=O)ccc2cc(NS(=O)(=O)c3ccccc3C#N)ccc21` [Compound 2, 2-cyano-N-(1-methyl-2-oxo-1,2-dihydroquinolin-6-yl)benzenesulfonamide], the Kd was 430 nM on BRPF1B and 1700 nM on BRD1.

As to `Cn1c(=O)ccc2cc(NS(=O)(=O)c3cccc(C#N)c3)ccc21` [Compound 3, 3-cyano-N-(1-methyl-2-oxo-1,2-dihydroquinolin-6-yl)benzenesulfonamide], the Kd is 56 nM at BRPF1B and 270 nM at BRD1.

`Cn1c(=O)ccc2cc(NS(=O)(=O)c3ccc(Cl)c(Cl)c3)ccc21` [Compound 9, 3,4-dichloro-N-(1-methyl-2-oxo-1,2-dihydroquinolin-6-yl)benzenesulfonamide]: the Kd turned out to be 44 nM on BRPF1B and 230 nM on BRD1.

Turning to `COc1cc2c(ccc(=O)n2C)cc1NS(=O)(=O)c1ccccc1` [Compound 10, N-(7-methoxy-1-methyl-2-oxo-1,2-dihydroquinolin-6-yl)benzenesulfonamide], the Kd on BRPF1B amounted to 29 nM; at BRD1 it was 380 nM; at BRPF3, 2200 nM.

Compound `CCOc1cc2c(ccc(=O)n2C)cc1NS(=O)(=O)c1ccc(C#N)cc1` [Compound 13, 4-cyano-N-(7-ethoxy-1-methyl-2-oxo-1,2-dihydroquinolin-6-yl)benzenesulfonamide] returned a Kd on BRPF1B of 55 nM.

The compound `CC(C)Oc1cc2c(ccc(=O)n2C)cc1NS(=O)(=O)c1ccc(C#N)cc1` [Compound 14, 4-cyano-N-(7-isopropoxy-1-methyl-2-oxo-1,2-dihydroquinolin-6-yl)benzenesulfonamide] returned a Kd on BRPF1B of 39 nM.

In the case of `COc1c(NS(=O)(=O)c2ccc(C#N)cc2)ccc2c1ccc(=O)n2C` [Compound 16, 4-cyano-N-(5-methoxy-1-methyl-2-oxo-1,2-dihydroquinolin-6-yl)benzenesulfonamide], the Kd at BRPF1B was 46 nM; at BRD1, 210 nM.

In the case of `Cn1c(=O)ccc2c(Br)c(NS(=O)(=O)c3ccc(C#N)cc3)ccc21` [Compound 18, N-(5-bromo-1-methyl-2-oxo-1,2-dihydroquinolin-6-yl)-4-cyanobenzenesulfonamide], the results for the Kd at BRPF1B and on BRD1 were 210 nM and 840 nM, respectively.

`COc1cc2c(cc1NS(=O)(=O)c1ccccc1)cc(C)c(=O)n2C` [Compound 21, N-(7-methoxy-1,3-dimethyl-2-oxo-1,2-dihydroquinolin-6-yl)benzenesulfonamide]: the Kd at BRPF1B stood at 17 nM; on BRD1, 190 nM; at BRPF3 it was 590 nM.

In the case of `COc1cc2c(cc1NS(=O)(=O)c1ccc(C#N)cc1)cc(C)c(=O)n2C` [Compound 22, 4-cyano-N-(7-methoxy-1,3-dimethyl-2-oxo-1,2-dihydroquinolin-6-yl)benzenesulfonamide], the dissociation constant (Kd) stood at 15 nM on BRPF1B, 100 nM on BRD1 and 280 nM on BRPF3.

On BRPF1B, `COc1cc2c(cc1NS(=O)(=O)c1ccc(N)cc1)cc(C)c(=O)n2C` [Compound 25, 4-amino-N-(7-methoxy-1,3-dimethyl-2-oxo-1,2-dihydroquinolin-6-yl)benzenesulfonamide] registered a Kd of 420 nM.

On to `Cc1cc(=O)n(C)c2ccc(NS(=O)(=O)c3ccc(C#N)cc3)cc12` [Compound 30, 4-cyano-N-(1,4-dimethyl-2-oxo-1,2-dihydroquinolin-6-yl)benzenesulfonamide], for which the dissociation constant (Kd) at BRPF1B turned out to be 24 nM; at BRD1, 150 nM.

As for `CN(c1ccc2c(ccc(=O)n2C)c1)S(=O)(=O)c1ccc(C#N)cc1` [Compound 34, 4-cyano-N-methyl-N-(1-methyl-2-oxo-1,2-dihydroquinolin-6-yl)benzenesulfonamide], the Kd was 910 nM on BRPF1B and 6700 nM on BRD1.

For `CCn1c(=O)ccc2cc(NS(=O)(=O)c3ccc(C#N)cc3)ccc21` [Compound 35, 4-cyano-N-(1-ethyl-2-oxo-1,2-dihydroquinolin-6-yl)benzenesulfonamide], the dissociation constant (Kd) on BRPF1B worked out at 47 nM; on BRD1 it was 390 nM.

In the case of `Cn1c(=O)ccc2cc(S(=O)(=O)Nc3ccc(C#N)cc3)ccc21` [Compound 38, N-(4-cyanophenyl)-1-methyl-2-oxo-1,2-dihydroquinoline-6-sulfonamide], the Kd on BRPF1B stood at 100 nM; at BRD1 it was 150 nM.

For the compound `CCc1cc2cc(NS(=O)(=O)c3ccc(C#N)cc3OC)ccc2n(C)c1=O` [Compound 45, 4-cyano-N-(3-ethyl-1-methyl-2-oxo-1,2-dihydroquinolin-6-yl)-2-methoxybenzenesulfonamide], the Kd at BRPF1B came out at 66 nM.

Turning to `COc1cc(C#N)ccc1S(=O)(=O)Nc1cc(F)c2c(c1)cc(C)c(=O)n2C` [Compound 49, 4-cyano-N-(8-fluoro-1,3-dimethyl-2-oxo-1,2-dihydroquinolin-6-yl)-2-methoxybenzenesulfonamide], the Kd at BRPF1B is 10 nM.

At BRPF1B, `COc1cc2c(cc1NS(=O)(=O)c1ccc(C#N)cc1)c(C)c(C)c(=O)n2C` [Compound 50, 4-cyano-N-(7-methoxy-1,3,4-trimethyl-2-oxo-1,2-dihydroquinolin-6-yl)benzenesulfonamide] registered a Kd of 140 nM.

For the compound `Cn1c(=O)ccc2cc(NS(C)(=O)=O)ccc21` [Compound 51, N-(1-methyl-2-oxo-1,2-dihydroquinolin-6-yl)methanesulfonamide], the dissociation constant (Kd) at BRPF1B turned out to be 2200 nM.

For the compound `CCS(=O)(=O)Nc1ccc2c(ccc(=O)n2C)c1` [Compound 52, N-(1-methyl-2-oxo-1,2-dihydroquinolin-6-yl)ethanesulfonamide], binding at BRPF1B was characterised by a dissociation constant (Kd) of 1200 nM.

Compound `CC(C)S(=O)(=O)Nc1ccc2c(ccc(=O)n2C)c1` [Compound 53, N-(1-methyl-2-oxo-1,2-dihydroquinolin-6-yl)propane-2-sulfonamide] yielded a Kd at BRPF1B of 1100 nM.

`Cn1c(=O)ccc2cc(NS(=O)(=O)C3CC3)ccc21` [Compound 54, N-(1-methyl-2-oxo-1,2-dihydroquinolin-6-yl)cyclopropanesulfonamide] displayed a Kd on BRPF1B of 520 nM.

`Cn1c(=O)ccc2cc(NS(=O)(=O)C3CCCCC3)ccc21` [Compound 55, N-(1-methyl-2-oxo-1,2-dihydroquinolin-6-yl)cyclohexanesulfonamide] displayed an equilibrium dissociation constant (Kd) on BRPF1B of 380 nM.

For the compound `Cc1cc2cc(NS(=O)(=O)C3CCCCC3)ccc2n(C)c1=O` [Compound 56, N-(1,3-dimethyl-2-oxo-1,2-dihydroquinolin-6-yl)cyclohexanesulfonamide], on BRPF1B, the Kd is 31 nM.

Turning to `COc1cc(C#N)ccc1S(=O)(=O)N(C)c1ccc2c(c1)cc(C)c(=O)n2C` [Compound 59, 4-cyano-N-(1,3-dimethyl-2-oxo-1,2-dihydroquinolin-6-yl)-2-methoxy-N-methylbenzenesulfonamide], the affinity on BRPF1B, expressed as Kd, was 52 nM.

In turn, `COc1cc(C(N)=O)ccc1S(=O)(=O)Nc1ccc2c(c1)cc(C)c(=O)n2C` [Compound 62, 4-(N-(1,3-dimethyl-2-oxo-1,2-dihydroquinolin-6-yl)sulfamoyl)-3-methoxybenzamide] came in with a Kd at BRPF1B of 5 nM.

Regarding `COc1cc2c(cc1NS(=O)(=O)c1ccccc1OC(F)(F)F)cc(C)c(=O)n2C` [Compound 67, N-(7-methoxy-1,3-dimethyl-2-oxo-1,2-dihydroquinolin-6-yl)-2-(trifluoromethoxy)benzenesulfonamide], the equilibrium dissociation constant (Kd) on BRPF1B turned out to be 48 nM.

Consider `COc1ccccc1S(=O)(=O)Nc1ccc2c(c1)cc(C)c(=O)n2C` [Compound P-001, N-(1,3-dimethyl-2-oxo-1,2-dihydroquinolin-6-yl)-2-methoxybenzenesulfonamide, reference compound], for which the dissociation constant Kd came to 9 nM on BRPF1B and 130 nM at BRD1.

In general, Kd refers to a measure of binding affinity in units of concentration. A high value points to weaker binding.

Values taken from US20170291875A1, “QUINOLONES AS INHIBITORS OF CLASS IV BROMODOMAIN PROTEINS” (UCL BUSINESS PLC, priority 2014, published 2017).
